Bridge positions count the residues as written; N and C are the ends. Square brackets hold non-standard residues; d marks the D form. Peptide text beside a SMILES is read from it. * marks the point of attachment. Bip = N[C@@H](Cc1ccc(-c2ccccc2)cc1)C(=O)O; Phe(3-Me) = Cc1cccc(C[C@H](N)C(=O)O)c1; Cha = N[C@@H](CC1CCCCC1)C(=O)O; Cit = NC(=O)NCCC[C@H](N)C(=O)O; Carboxymethyl = O=C(O)C*; Nle = CCCC[C@H](N)C(=O)O; Orn = NCCC[C@H](N)C(=O)O; Aun = NCCCCCCCCCCC(=O)O; Dab = NCC[C@H](N)C(=O)O; Dap = NC[C@H](N)C(=O)O

The test deals with T1, PD-1/PD-L1 interaction (PE-labeled human PD-L1-Ig binding to Jurkat cell line over-expressing human PD-1) (Homo sapiens, UniProt Q15116).
T1 construct: expressed in transfected cells; host or cells: Jurkat
T1 sequence (Q15116 25-288): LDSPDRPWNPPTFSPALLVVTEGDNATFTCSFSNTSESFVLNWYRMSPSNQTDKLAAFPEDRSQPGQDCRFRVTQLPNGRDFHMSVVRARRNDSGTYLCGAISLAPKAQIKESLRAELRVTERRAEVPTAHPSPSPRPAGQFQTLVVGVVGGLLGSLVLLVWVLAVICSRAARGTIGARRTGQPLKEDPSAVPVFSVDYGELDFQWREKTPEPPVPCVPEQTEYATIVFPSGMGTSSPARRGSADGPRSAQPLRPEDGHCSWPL
Description: Jurkat-PD-1 Cell Binding High-Content Screening Assay (CBA). The settings on record: Jurkat cell line over-expressing human PD-1; PE-labeled PD-L1-Ig 20 nM final; read-out: Jurkat hPD1-PDL1 IC50. The format is cell-based. The method, boiled down: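 Binding of fluorescent PD-L1-Ig (20 nM final) to Jurkat-PD-1 cells was measured by automated imaging after 1 h, following a 2 h compound pre-treatment at 37° C.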
`CCCC[C@@H]1NC(=O)[C@H](C(C)C)NC(=O)[C@H](CC2CCCCC2)NC(=O)[C@H](CCN)NC(=O)[C@@H](CC(C)C)NC(=O)[C@H](CCCN)NC(=O)[C@H](Cc2ccc(O)cc2)NC(=O)[C@H](Cc2ccc(-c3ccccc3)cc2)NC(=O)[C@H](C(C)C)NC(=O)[C@H](Cc2cccc(C)c2)NC(=O)[C@H](CC(=O)O)NC(=O)[C@H](Cc2ccc(OCC(=O)O)cc2)NC(=O)[C@H](CN)NC(=O)CSC[C@@H](C(=O)N[C@@H](CCN)C(=O)NCCCCCCCCCCC(=O)O)NC1=O` [Compound 2720] ({CH2CO}-[Dap]Y(Carboxymethyl)D[Phe(3-Me)]V[Bip]Y[Orn][dL][Dab][Cha]V[Nle]C[Dab][Aun]-OH; thioether N-14): the IC50 (as a rule, the concentration at which inhibition is half-maximal) is 135 nM.

Take `Cc1cccc(C[C@@H]2NC(=O)[C@H](CC(=O)O)NC(=O)[C@H](Cc3ccc(OCC(=O)O)cc3)NC(=O)[C@H](CN)NC(=O)CSC[C@@H](C(=O)N[C@@H](CCN)C(=O)NCCCCCCCCCCC(=O)O)NC(=O)[C@@H](CCC(N)=O)NC(=O)[C@H](C(C)C)NC(=O)[C@H](CC3CCCCC3)NC(=O)[C@H](CCN)NC(=O)[C@@H](CC(C)C)NC(=O)[C@H](CCCN)NC(=O)[C@H](Cc3ccc(O)cc3)NC(=O)[C@H](Cc3ccc(-c4ccccc4)cc3)NC(=O)[C@H](C(C)C)NC2=O)c1` [Compound 2721] ({CH2CO}-[Dap]Y(Carboxymethyl)D[Phe(3-Me)]V[Bip]Y[Orn][dL][Dab][Cha]V[dQ]C[Dab][Aun]-OH; thioether N-14): the half-inhibitory concentration (IC50) was determined as 22.4 nM.

As to `Cc1cccc(C[C@@H]2NC(=O)[C@H](CC(=O)O)NC(=O)[C@H](Cc3ccc(OCC(=O)O)cc3)NC(=O)[C@H](CN)NC(=O)CSC[C@@H](C(=O)N[C@@H](CCN)C(=O)NCCCCCCCCCCC(=O)O)NC(=O)[C@@H]([C@H](C)O)NC(=O)[C@H](C(C)C)NC(=O)[C@H](CC3CCCCC3)NC(=O)[C@H](CCN)NC(=O)[C@@H](CC(C)C)NC(=O)[C@H](CCCN)NC(=O)[C@H](Cc3ccc(O)cc3)NC(=O)[C@H](Cc3ccc(-c4ccccc4)cc3)NC(=O)[C@H](C(C)C)NC2=O)c1` [Compound 2722] ({CH2CO}-[Dap]Y(Carboxymethyl)D[Phe(3-Me)]V[Bip]Y[Orn][dL][Dab][Cha]V[dT]C[Dab][Aun]-OH; thioether N-14), the IC50 came to 34.3 nM.

Regarding `Cc1cccc(C[C@@H]2NC(=O)[C@H](CC(=O)O)NC(=O)[C@H](Cc3ccc(OCC(=O)O)cc3)NC(=O)[C@H](CCCNC(=N)N)NC(=O)CSC[C@@H](C(=O)N[C@@H](CCN)C(=O)NCCCCCCCCCCC(=O)O)NC(=O)[C@H](CCCNC(N)=O)NC(=O)[C@H](C(C)C)NC(=O)[C@H](CC3CCCCC3)NC(=O)[C@H](CCN)NC(=O)[C@@H](CC(C)C)NC(=O)[C@H](CCCN)NC(=O)[C@H](Cc3ccc(O)cc3)NC(=O)[C@H](Cc3ccc(-c4ccccc4)cc3)NC(=O)[C@H](C(C)C)NC2=O)c1` [Compound 2723] ({CH2CO}-RY(Carboxymethyl)D[Phe(3-Me)]V[Bip]Y[Orn][dL][Dab][Cha]V[Cit]C[Dab][Aun]-OH; thioether N-14), the IC50 worked out at 26.9 nM.

`Cc1cccc(C[C@@H]2NC(=O)[C@H](CC(=O)O)NC(=O)[C@H](Cc3ccc(OCC(=O)O)cc3)NC(=O)[C@H](CCCNC(=N)N)NC(=O)CSC[C@@H](C(=O)N[C@@H](CCN)C(=O)NCCCCCCCCCCC(=O)O)NC(=O)[C@H](CCCNC(N)=O)NC(=O)[C@H](C(C)C)NC(=O)[C@H](CC3CCCCC3)NC(=O)[C@H](CCN)NC(=O)[C@@H](CC(C)C)NC(=O)[C@H](CCCN)NC(=O)[C@H](Cc3ccc(O)cc3)NC(=O)[C@H](Cc3ccc(-c4ccccc4)cc3)NC(=O)[C@H](Cc3ccc(O)cc3)NC2=O)c1` [Compound 2724] ({CH2CO}-RY(Carboxymethyl)D[Phe(3-Me)]Y[Bip]Y[Orn][dL][Dab][Cha]V[Cit]C[Dab][Aun]-OH; thioether N-14): the IC50 stood at 7.7 nM.

Consider `Cc1cccc(C[C@@H]2NC(=O)[C@H](CC(=O)O)NC(=O)[C@H](Cc3ccc(OCC(=O)O)cc3)NC(=O)[C@H](CCCNC(=N)N)NC(=O)CSC[C@@H](C(=O)N[C@@H](CCN)C(=O)NCCCCCCCCCCC(=O)O)NC(=O)[C@H]([C@@H](C)O)NC(=O)[C@H](C(C)C)NC(=O)[C@H](CC3CCCCC3)NC(=O)[C@H](CCN)NC(=O)[C@@H](CC(C)C)NC(=O)[C@H](CCCN)NC(=O)[C@H](Cc3ccc(O)cc3)NC(=O)[C@H](Cc3ccc(-c4ccccc4)cc3)NC(=O)[C@H](C(C)C)NC2=O)c1` [Compound 2725] ({CH2CO}-RY(Carboxymethyl)D[Phe(3-Me)]V[Bip]Y[Orn][dL][Dab][Cha]VTC[Dab][Aun]-OH; thioether N-14), for which the half-maximal inhibitory concentration (IC50) came out at 29.9 nM.

In the case of `Cc1cccc(C[C@@H]2NC(=O)[C@H](CC(=O)O)NC(=O)[C@H](Cc3ccc(OCC(=O)O)cc3)NC(=O)[C@H](CCCNC(=N)N)NC(=O)CSC[C@@H](C(=O)N[C@@H](CCN)C(=O)NCCCCCCCCCCC(=O)O)NC(=O)[C@H]([C@@H](C)O)NC(=O)[C@H](C(C)C)NC(=O)[C@H](CC3CCCCC3)NC(=O)[C@H](CCN)NC(=O)[C@@H](CC(C)C)NC(=O)[C@H](CCCN)NC(=O)[C@H](Cc3ccc(O)cc3)NC(=O)[C@H](Cc3ccc(-c4ccccc4)cc3)NC(=O)[C@H](Cc3ccc(O)cc3)NC2=O)c1` [Compound 2726] ({CH2CO}-RY(Carboxymethyl)D[Phe(3-Me)]Y[Bip]Y[Orn][dL][Dab][Cha]VTC[Dab][Aun]-OH; thioether N-14), the IC50 is 24.1 nM.

As to `CC(C)C[C@H]1NC(=O)[C@H](CCCN)NC(=O)[C@H](Cc2ccc(O)cc2)NC(=O)[C@H](Cc2ccc(-c3ccccc3)cc2)NC(=O)[C@H](C(C)C)NC(=O)[C@H](Cc2c[nH]c3ccccc23)NC(=O)[C@H](CC(=O)O)NC(=O)[C@H](Cc2ccc(OCC(=O)O)cc2)NC(=O)[C@H]([C@@H](C)O)NC(=O)CSC[C@@H](C(=O)N[C@@H](CCN)C(=O)NCCCCCCCCCCC(=O)O)NC(=O)[C@H]([C@@H](C)O)NC(=O)[C@H](C(C)C)NC(=O)[C@H](CC2CCCCC2)NC(=O)[C@H](CCN)NC1=O` [Compound 2727] ({CH2CO}-TY(Carboxymethyl)DWV[Bip]Y[Orn][dL][Dab][Cha]VTC[Dab][Aun]-OH; thioether N-14), the IC50 stood at 30.1 nM.

In the case of `CC(C)C[C@H]1NC(=O)[C@H](CCCN)NC(=O)[C@H](Cc2ccc(O)cc2)NC(=O)[C@H](Cc2ccc(-c3ccccc3)cc2)NC(=O)[C@H](Cc2ccc(O)cc2)NC(=O)[C@H](Cc2c[nH]c3ccccc23)NC(=O)[C@H](CC(=O)O)NC(=O)[C@H](Cc2ccc(OCC(=O)O)cc2)NC(=O)[C@H]([C@@H](C)O)NC(=O)CSC[C@@H](C(=O)N[C@@H](CCN)C(=O)NCCCCCCCCCCC(=O)O)NC(=O)[C@H]([C@@H](C)O)NC(=O)[C@H](C(C)C)NC(=O)[C@H](CC2CCCCC2)NC(=O)[C@H](CCN)NC1=O` [Compound 2728] ({CH2CO}-TY(Carboxymethyl)DWY[Bip]Y[Orn][dL][Dab][Cha]VTC[Dab][Aun]-OH; thioether N-14), the 50% inhibitory concentration (IC50) turned out to be 17.4 nM.

Consider `CC(C)C[C@H]1NC(=O)[C@H](CCCN)NC(=O)[C@H](Cc2ccc(O)cc2)NC(=O)[C@H](Cc2ccc(-c3ccccc3)cc2)NC(=O)[C@H](C(C)C)NC(=O)[C@H](Cc2c[nH]c3ccccc23)NC(=O)[C@H](CC(=O)O)NC(=O)[C@H](Cc2ccc(OCC(=O)O)cc2)NC(=O)[C@H]([C@@H](C)O)NC(=O)CSC[C@@H](C(=O)N[C@@H](CCN)C(=O)NCCCCCCCCCCC(=O)O)NC(=O)[C@H](CCCNC(N)=O)NC(=O)[C@H](C(C)C)NC(=O)[C@H](CC2CCCCC2)NC(=O)[C@H](CCN)NC1=O` [Compound 2729] ({CH2CO}-TY(Carboxymethyl)DWV[Bip]Y[Orn][dL][Dab][Cha]V[Cit]C[Dab][Aun]-OH; thioether N-14), for which the IC50 was 12.9 nM.

The record behind these values is patent US20260022142A1, “MACROCYCLIC IMMUNOMODULATORS” (Bristol-Myers Squibb Company, priority 2022, published 2026).
